Series [1] concerns NMDAR. The arrangement: method as in Kew et al., 1996. The settings on record: ref Kew et al., 1996; cited from earlier work.
Series [2] addresses GluN1/GluN2D NMDARs (Rattus norvegicus, UniProt P35439+Q62645). The experiment in a line: Two-electrode voltage-clamp recordings, Xenopus laevis oocytes expressing GluN1/GluN2D. The following applies: for Emax: mean ± SEM, read-out: Maximal Degree of Modulation (% of control). Format: cell-based. The protocol: cDNAs for rat wild type NMDAR subunits GluN1-1a (GenBank U11418, U08261; hereafter GluN1 or GluN1a), GluN1-1b (U08263, hereafter GluN1b), GluN2A (D13211), GluN2B (U11419), Glu[…]), and Glu[…], modified as described in [Monyer et al., 1994]) were provided by Drs. S. Heinemann (Salk Institute), S. Nakanishi (Kyoto University), and P. Seeburg (University of Heidelberg). Site-directed mutagenesis was conducted using the QuikChange kit (Agilent Technologies, Santa Clara, CA) following the recommended protocol. DNA sequencing was used to verify all mutations. The amino acid numbering system started with the initiating methionine as residue number one. For expression in Xenopus laevis oocytes, cDNA constructs were linearized by restriction enzymes, and subsequently used to synthesize in vitro cRNAs following the manufacturer's protocol (mMessage mMachine, Ambion, ThermoFisher Scientific, Waltham, MA). […] All extracellular solutions were made from a solution containing (in mM) 90 NaCl, 1 KCl, 10 HEPES, 0.5 BaCl2, 0.01 EDTA (pH 7.4 with NaOH). Experiments were performed using an eight port Modular Valve Positioner (Hamilton Company, Reno, NV) and controlled by custom software (Easy Oocyte, Emory University, Atlanta, GA)to exchange solutions. Oocyte currents were recorded at a holding potential of -40 mV using a two-electrode voltage-clamp amplifier (OC-725B or OC-725C, Warner Instruments, Hamden, CT). […] Measurements are given as mean ± SEM unless otherwise indicated. […] EC50 and IC50 values and confidence intervals reported were calculated by averaging the log(EC50) or log(IC50) value, determining confidence intervals for mean log(EC50) or log(IC50), and converting back to units of molarity. Statistical significance evaluations (α set to 0.05) were performed using a one-way ANOVA with Dunnett's multiple comparison test, a paired t-test, or other appropriate tests as described.
(In general: Two-electrode voltage clamp holds a large cell at a set potential and records current.)

Series [3] has as its target GluN1/GluN2A NMDARs (Rattus norvegicus, UniProt P35439+Q00959). The experiment in a line: Two-electrode voltage-clamp recordings, Xenopus laevis oocytes expressing GluN1/GluN2A. The following applies: saturating glutamate/glycine 100/30 µM; for EC50: mean [95% CI], - = not fit, response at 30 µM differed by no more than 15% from control, read-out: EC50 (µM) [conf. int.]; for Emax: mean ± SEM, read-out: Maximal Degree of Modulation (% of control). Format: cell-based. The protocol: (§1) cDNAs for rat wild type NMDAR subunits GluN1-1a (GenBank U11418, U08261; hereafter GluN1 or GluN1a), GluN1-1b (U08263, hereafter GluN1b), GluN2A (D13211), GluN2B (U11419), GluN2C (M91563), and GluN2D (L31611, modified as described in [Monyer et al., 1994]) were provided by Drs. S. Heinemann (Salk Institute), S. Nakanishi (Kyoto University), and P. Seeburg (University of Heidelberg). Site-directed mutagenesis was conducted using the QuikChange kit (Agilent Technologies, Santa Clara, CA) following the recommended protocol. DNA sequencing was used to verify all mutations. The amino acid numbering system started with the initiating methionine as residue number one. For expression in Xenopus laevis oocytes, cDNA constructs were linearized by restriction enzymes, and subsequently used to synthesize in vitro cRNAs following the manufacturer’s protocol (mMessage mMachine, Ambion, ThermoFisher Scientific, Waltham, MA).
(§2) Xenopus laevis stage VI oocytes (Ecocyte Biosciences, Austin, TX) were injected as previously described ([Hansen et al., 2013]) 2–7 days prior to recording with cRNA encoding the NMDAR subunits and stored at 15°C in media containing (in mM) 88 NaCl, 2.4 NaHCO3, 1 KCl, 0.33 Ca(NO3)2, 0.41 CaCl2, 0.82 MgSO4, 5 Tris-HCl; pH was adjusted to 7.4 with NaOH and the solution supplemented with 1 U/mL penicillin, 0.1 mg/mL gentamicin sulfate, and 1 μg/mL streptomycin. Two-electrode voltage-clamp recordings were performed at room temperature (21–23°C) using different internal solutions for voltage and current electrodes (0.3 M and 3.0 M KCl, respectively). All extracellular solutions were made from a solution containing (in mM) 90 NaCl, 1 KCl, 10 HEPES, 0.5 BaCl2, 0.01 EDTA (pH 7.4 with NaOH). Experiments were performed using an eight port Modular Valve Positioner (Hamilton Company, Reno, NV) and controlled by custom software (Easy Oocyte, Emory University, Atlanta, GA)to exchange solutions. Oocyte currents were recorded at a holding potential of −40 mV using a two-electrode voltage-clamp amplifier (OC-725B or OC-725C, Warner Instruments, Hamden, CT). […] In MTSEA experiments, fresh MTSEA solutions (0.2 mM) were prepared and utilized in less than 30 min to limit compound degradation.
(§3) Measurements are given as mean ± SEM unless otherwise indicated. The number of replicate experiments used was chosen to ensure a power level of at least 0.80 when α = 0.05 and when detecting appropriate effect sizes. EC50 and IC50 values and confidence intervals reported were calculated by averaging the log(EC50) or log(IC50) value, determining confidence intervals for mean log(EC50) or log(IC50), and converting back to units of molarity. Statistical significance evaluations (α set to 0.05) were performed using a one-way ANOVA with Dunnett’s multiple comparison test, a paired t–test, or other appropriate tests as described.

In series [4] the target is GluN1/GluN2B NMDARs (Rattus norvegicus, UniProt P35439+Q00960). In words: Two-electrode voltage-clamp recordings, Xenopus laevis oocytes expressing GluN1/GluN2B. Format: cell-based. The settings on record: saturating glutamate/glycine 100/30 µM; for EC50: mean [95% CI], - = not fit, response at 30 µM differed by no more than 15% from control, read-out: EC50 (µM) [conf. int.]; for Emax: mean ± SEM, read-out: Maximal Degree of Modulation (% of control). The protocol:
as §1, §2, §3

The target of series [5] is GluN1/GluN2C NMDARs (Rattus norvegicus, UniProt P35439+Q00961). In words: Two-electrode voltage-clamp recordings, Xenopus laevis oocytes expressing GluN1/GluN2C. The following applies: saturating glutamate/glycine 100/30 µM; for EC50: mean [95% CI], read-out: EC50 (µM) [conf. int.]; for Emax: mean ± SEM, read-out: Maximal Degree of Modulation (% of control). Format: cell-based. The protocol: as §1, §2, §3

Setting [6] is: saturating glutamate/glycine 100/30 µM, mean [95% CI], read-out: EC50 (µM) [conf. int.].
The mark [7] stands for this setting: saturating glutamate/glycine 100/30 µM.

Read-outs that look alike come from different tables or passages of the source. Some results are limits rather than exact numbers.

Sequence of GluN1/GluN2C NMDARs (Q00961 20-1237, other chains not shown): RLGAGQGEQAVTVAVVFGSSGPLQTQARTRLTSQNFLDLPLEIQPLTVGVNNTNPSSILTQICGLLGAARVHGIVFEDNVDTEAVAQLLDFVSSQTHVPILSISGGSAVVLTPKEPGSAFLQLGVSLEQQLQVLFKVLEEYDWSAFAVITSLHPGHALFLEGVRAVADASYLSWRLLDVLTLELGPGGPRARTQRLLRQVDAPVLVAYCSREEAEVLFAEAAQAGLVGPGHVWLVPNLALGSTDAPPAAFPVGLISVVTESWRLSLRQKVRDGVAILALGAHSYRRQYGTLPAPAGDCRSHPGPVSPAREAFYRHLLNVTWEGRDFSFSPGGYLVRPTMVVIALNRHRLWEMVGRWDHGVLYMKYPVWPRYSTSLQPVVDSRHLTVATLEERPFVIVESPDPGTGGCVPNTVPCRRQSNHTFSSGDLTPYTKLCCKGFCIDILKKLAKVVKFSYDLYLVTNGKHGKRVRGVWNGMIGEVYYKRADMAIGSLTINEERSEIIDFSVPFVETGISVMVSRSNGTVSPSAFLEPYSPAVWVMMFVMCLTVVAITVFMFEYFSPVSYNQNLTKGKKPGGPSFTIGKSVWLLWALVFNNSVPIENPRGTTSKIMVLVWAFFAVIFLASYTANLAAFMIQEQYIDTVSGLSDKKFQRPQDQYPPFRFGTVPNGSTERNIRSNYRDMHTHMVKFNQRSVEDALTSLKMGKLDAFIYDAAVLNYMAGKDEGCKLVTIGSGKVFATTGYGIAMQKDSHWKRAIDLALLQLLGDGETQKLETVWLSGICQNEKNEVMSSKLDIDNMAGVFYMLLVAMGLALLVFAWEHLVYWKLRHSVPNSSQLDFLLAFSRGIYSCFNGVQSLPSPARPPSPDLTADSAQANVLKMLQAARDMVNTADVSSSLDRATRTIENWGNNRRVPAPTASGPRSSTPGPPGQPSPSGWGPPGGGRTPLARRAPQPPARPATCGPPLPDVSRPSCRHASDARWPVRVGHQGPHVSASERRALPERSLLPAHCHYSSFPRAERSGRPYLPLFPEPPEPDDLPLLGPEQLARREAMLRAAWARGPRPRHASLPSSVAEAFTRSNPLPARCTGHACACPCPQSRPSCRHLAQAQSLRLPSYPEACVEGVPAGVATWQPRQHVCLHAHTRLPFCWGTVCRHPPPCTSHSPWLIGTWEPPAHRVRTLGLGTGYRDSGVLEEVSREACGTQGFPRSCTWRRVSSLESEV
Sequence of GluN1/GluN2D NMDARs (Q62645 28-1323, other chains not shown): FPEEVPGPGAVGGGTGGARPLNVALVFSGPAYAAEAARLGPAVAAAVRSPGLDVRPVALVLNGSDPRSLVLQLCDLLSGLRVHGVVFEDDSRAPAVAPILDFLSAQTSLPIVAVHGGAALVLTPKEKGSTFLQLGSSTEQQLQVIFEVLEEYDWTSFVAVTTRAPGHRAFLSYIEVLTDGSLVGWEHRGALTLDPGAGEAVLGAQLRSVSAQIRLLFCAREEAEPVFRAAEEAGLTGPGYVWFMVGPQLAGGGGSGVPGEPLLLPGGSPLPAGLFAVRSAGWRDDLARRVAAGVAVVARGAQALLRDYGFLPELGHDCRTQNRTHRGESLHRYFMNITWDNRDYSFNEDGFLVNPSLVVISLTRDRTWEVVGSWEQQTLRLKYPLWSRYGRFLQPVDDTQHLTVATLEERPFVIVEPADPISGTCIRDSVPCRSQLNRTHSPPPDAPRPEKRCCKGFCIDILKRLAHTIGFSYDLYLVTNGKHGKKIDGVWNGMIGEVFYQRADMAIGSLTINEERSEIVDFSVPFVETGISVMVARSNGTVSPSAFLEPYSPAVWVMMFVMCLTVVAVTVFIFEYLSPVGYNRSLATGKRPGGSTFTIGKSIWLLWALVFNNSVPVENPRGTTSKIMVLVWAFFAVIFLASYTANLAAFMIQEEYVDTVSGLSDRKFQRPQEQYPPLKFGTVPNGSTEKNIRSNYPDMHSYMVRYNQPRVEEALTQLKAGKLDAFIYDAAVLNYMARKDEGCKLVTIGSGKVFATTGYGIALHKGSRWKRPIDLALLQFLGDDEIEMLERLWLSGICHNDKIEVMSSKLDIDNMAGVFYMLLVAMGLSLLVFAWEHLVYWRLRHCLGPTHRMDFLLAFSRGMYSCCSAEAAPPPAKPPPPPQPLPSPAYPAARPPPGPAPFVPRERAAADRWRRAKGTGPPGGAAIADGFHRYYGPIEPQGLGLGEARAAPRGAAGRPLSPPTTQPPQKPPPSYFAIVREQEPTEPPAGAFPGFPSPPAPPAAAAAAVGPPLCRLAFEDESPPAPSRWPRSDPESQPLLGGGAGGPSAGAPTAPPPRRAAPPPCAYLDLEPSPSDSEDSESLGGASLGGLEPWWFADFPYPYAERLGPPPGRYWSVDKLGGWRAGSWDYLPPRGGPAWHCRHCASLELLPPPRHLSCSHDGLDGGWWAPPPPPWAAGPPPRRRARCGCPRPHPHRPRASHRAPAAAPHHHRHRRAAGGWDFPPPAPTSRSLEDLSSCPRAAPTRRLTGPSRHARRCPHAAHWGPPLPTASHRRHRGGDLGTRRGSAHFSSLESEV
Sequence of GluN1/GluN2A NMDARs (Q00959 23-1464, other chains not shown): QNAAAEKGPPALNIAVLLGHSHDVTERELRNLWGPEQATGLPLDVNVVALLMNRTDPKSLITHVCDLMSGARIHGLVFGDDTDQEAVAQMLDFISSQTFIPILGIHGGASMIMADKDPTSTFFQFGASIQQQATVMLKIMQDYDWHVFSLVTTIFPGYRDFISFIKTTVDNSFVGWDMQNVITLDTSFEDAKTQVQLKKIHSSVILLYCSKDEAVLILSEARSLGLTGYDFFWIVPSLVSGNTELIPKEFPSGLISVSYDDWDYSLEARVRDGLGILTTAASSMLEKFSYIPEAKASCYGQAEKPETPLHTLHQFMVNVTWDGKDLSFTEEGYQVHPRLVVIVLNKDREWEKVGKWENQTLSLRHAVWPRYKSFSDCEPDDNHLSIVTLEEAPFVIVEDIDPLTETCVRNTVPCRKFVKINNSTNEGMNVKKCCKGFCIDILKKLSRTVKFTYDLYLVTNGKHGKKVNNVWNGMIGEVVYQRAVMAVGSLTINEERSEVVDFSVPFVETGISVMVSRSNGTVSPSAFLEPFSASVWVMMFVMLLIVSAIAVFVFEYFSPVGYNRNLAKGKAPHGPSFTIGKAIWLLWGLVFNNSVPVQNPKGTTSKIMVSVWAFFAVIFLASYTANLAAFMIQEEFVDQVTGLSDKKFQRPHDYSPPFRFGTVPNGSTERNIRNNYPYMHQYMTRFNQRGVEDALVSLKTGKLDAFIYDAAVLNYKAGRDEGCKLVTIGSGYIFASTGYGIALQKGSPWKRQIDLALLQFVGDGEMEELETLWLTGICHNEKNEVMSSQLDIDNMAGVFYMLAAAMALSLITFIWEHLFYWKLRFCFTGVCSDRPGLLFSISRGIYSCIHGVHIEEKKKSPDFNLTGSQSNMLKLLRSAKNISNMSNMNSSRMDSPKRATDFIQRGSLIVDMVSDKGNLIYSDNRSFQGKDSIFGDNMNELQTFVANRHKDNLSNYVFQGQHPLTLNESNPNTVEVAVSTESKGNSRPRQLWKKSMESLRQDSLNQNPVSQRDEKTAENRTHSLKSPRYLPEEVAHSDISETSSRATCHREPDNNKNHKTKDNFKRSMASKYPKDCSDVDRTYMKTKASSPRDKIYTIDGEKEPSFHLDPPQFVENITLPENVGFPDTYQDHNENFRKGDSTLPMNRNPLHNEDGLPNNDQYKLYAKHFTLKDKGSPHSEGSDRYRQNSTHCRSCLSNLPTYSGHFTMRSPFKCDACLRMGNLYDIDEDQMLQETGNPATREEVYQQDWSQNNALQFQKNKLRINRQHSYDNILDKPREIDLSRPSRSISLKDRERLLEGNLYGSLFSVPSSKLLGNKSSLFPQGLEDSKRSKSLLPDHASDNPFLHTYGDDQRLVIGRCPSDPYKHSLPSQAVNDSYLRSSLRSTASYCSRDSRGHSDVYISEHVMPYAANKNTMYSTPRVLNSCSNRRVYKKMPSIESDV

Regarding `CC(C(O)c1ccc(O)cc1)N1CCC(Cc2ccccc2)CC1` (stereo not shown) [ifenprodil], in series [1], the “residual current at saturating levels” value is ~ 10%.

For the compound `N[C@@H](CCC(=O)O)C(=O)O` [Glutamate, reference compound], in series [2] (read-out: Control Glutamate EC50 (µM) [conf. int.], glutamate EC50 in 30 µM glycine, absence of EU1794-27), the EC50 (in general, the concentration at which the effect is half-maximal) was determined as 0.21 µM.

In the case of `N=C1NC(=O)C(CC(=O)Nc2sc3c(c2C(=O)OCc2ccccc2)CCCC3)S1` (stereo not shown) [EU1794-25, benzyl 2-(2-(2-imino-4-oxothiazolidin-5-yl)acetamido)-4,5,6,7-tetrahydrobenzo[b]thiophene-3-carboxylate], the EC50 in series [3] is above 30 µM; in series [4], 1 µM; in series [5] it was 0.77 µM; in series [2] (setting [6]), 1 µM. Moreover, the Emax in series [4] turned out to be 220%; in series [5] it was 180%; in series [2] (setting [7]), 250%.

As for `CC(C)OC(=O)c1c(NC(=O)CC2SC(=N)NC2=O)sc2c1CCCC2` (stereo not shown) [EU1794-5, isopropyl 2-(2-(2-imino-4-oxothiazolidin-5-yl)acetamido)-4,5,6,7-tetrahydrobenzo[b]thiophene-3-carboxylate], the melting point (usually the temperature of the solid-liquid transition) lay within 152 to 154 °C. In addition, in series [3], the EC50 was 18 µM and the Emax was found to be 36%. Also, in series [4], the EC50 came out at 2.5 µM and the Emax came out at 71%. Also, in series [5], the EC50 was 4 µM and the Emax worked out at 140%. Besides, the EC50 in series [2] (setting [6]) turned out to be 9.3 µM.

With `CC1CCc2c(sc(NC(=O)CC3SC(=N)NC3=O)c2C(=O)OC(C)C)C1` (stereo not shown) [EU1794-19, isopropyl 2-(2-(2-imino-4-oxothiazolidin-5-yl)acetamido)-6-methyl-4,5,6,7-tetrahydrobenzo[b]thiophene-3-carboxylate], the melting point was 229 °C (dec.). Besides, in series [3], the EC50 stood at 1.1 µM and the Emax amounted to 19%. Moreover, in series [4], the EC50 came out at 1.1 µM and the Emax is 43%. In series [5], the EC50 was 0.74 µM and the Emax is 32%. For the same compound, the EC50 in series [2] (setting [6]) was 0.43 µM. Moreover, the Emax in series [2] (setting [7]) came out at 46%.

With `CCCCOC(=O)c1c(NC(=O)CC2SC(=N)NC2=O)sc2c1CCCC2` (stereo not shown) [EU1794-29, butyl 2-(2-(2-imino-4-oxothiazolidin-5-yl)acetamido)-4,5,6,7-tetrahydrobenzo[b]thiophene-3-carboxylate], the EC50 came to 3.7 µM in series [3], 1.4 µM in series [4], 3.8 µM in series [5] and 5.7 µM in series [2] (setting [6]). Also, the Emax in series [3] is 59%; in series [4], 140%; in series [5] it was 130%; in series [2] (setting [7]), 166%.

The record behind these values is article PMC5967867, “An NMDAR positive and negative allosteric modulator series share a binding site and are interconverted by methyl groups” (eLife, 2018).
